Test results as given in patent US11634381B2, “RUNX2 transcription factor inhibitors and uses thereof” (University of Maryland, Baltimore, priority 2015, dated 2023).

Key:
Assay type in all cases: cell-based, human
[1] = system: sE-Cad; assay: sE-Cad production by Western blot
Protocol: (§1) MCF7 cells were grown to subconfluence in the presence or absence of doxycycline for 72 hr in full media as described above. Cells were then treated in minimal DMEM (Sigma, D5030) containing 0.1% BSA, 1% L-glutamine, 2% Tet-Approved FBS, and 1 mM glucose for 16 hours followed by treatment with 2 ng/mL TGFβ (R&D Systems, 240-B-002) for 48 hours in the presence or absence of EGTA to examine sE-Cad expression levels, TAZ localization, and HER2 expression levels. Cells were washed with PBS and scraped from plates. Cytoplasmic and nuclear lysates were obtained using the Low/High Salt extraction method. Cytoplasmic extracts were obtained by resuspending cells in NP40 containing Hypotonic Buffer (10 mM HEPES pH 7.4, 1.5 mM MgCl2, 10 mM KCI, 0.5% NP40) followed by a 30 min incubation on ice and centrifiugation. Nuclear extracts were obtained by resuspending the nuclear pellet in an equal volume of low salt buffer (10 mM HEPES, 25% glycerol, 1.5 mM MgCl2, 20 mM KCI, 0.2 mM EDTA) followed by high salt buffer (10 mM HEPES, 25% glycerol, 1.5 mM MgCl2, 800 mM KCl, 0.2 mM EDTA) followed by vortexing, 30 min incubation on ice, another vortex, and centrifugation. Samples were resolved on 4-12% Bis-Tris polyacrylamide gradient gels (Invitrogen) and transferred to PVDF membranes (Millipore). […] Protein levels were normalized to actin and quantified using NIH Image-J software.
To assay for sE-Cad levels, MCF7 Tet.OFF cells were grown in the absence or presence of doxycycline for 3 days and then transfected with TAZ siRNA #1 using Lipofectamine-2000. […] After 72 hours, nuclear and cytoplasmic extracts were obtained using the High/Low salt extraction method described above and analyzed for sE-Cad, TAZ, and RUNX2. Protein levels were normalized to actin and quantified using NIH Image-J software.
(§2) MCF7 Tet.OFF cells were pretreated in the absence or presence of doxycycline for 3 days. […] Nuclear and cytoplasmic extracts were obtained using High/Low salt extraction method and protein levels analyzed by Western blot (see above).

[2] = system: MCF7 RUNX2 Tet.OFF cells; assay: Suspension culture tumorsphere formation; conditions: for tumorsphere diameter: 50 μM compound 1, 12 days
Protocol: MCF7 Tet.OFF cells were grown in the presence (+Dox, RUNX2 negative) or absence (−Dox, RUNX2 positive) of doxycycline for 3 days. Cells were then scraped and counted. 60,000 cells were plated in each well of a 6-well ultra-low attachment plate (Corning; 3471) in Promocell Basal Medium (Promocell; c-22211) complete with Supplement Mix (Promocell; c-39216). Cells were then treated with or without 2 ng/mL TGFβ (R&D Systems; 240-B-002). After growth for 10-15 days, wells were photographed and tumorsphere diameters were measured from photographic images (mm). Colony diameters were calculated using the formula: (L+W)/2. Representative photographs were obtained at 4× magnification. […] For TAZ siRNA knockdown experiments, TAZ siRNA was transfected (as below) into MCF7 Tet.OFF cells and 24 hr later cells were scraped and placed into suspension as described above. Small-Interfering RNA (siRNA) pool targeting RUNX1, RUNX2, and non-targeting control were purchased from Dharmacon, and transfected into cells using RNAiMAX Reagent (Invitrogen). Western blot analysis was performed 48 hrs after transfection.

[3] = system: PDH; assay: PDH enzymatic activity microtiter plate assay; conditions: MDA-MB-468 and MCF7, 50 μM
Protocol: In FIG. 23A PDH enzymatic activity was determined in doxycycline-responsive MCF7-tet-off (left) and Hs578t-Control or RUNX2 KD cells (right) or non-targeting control siRNA (NTC=RUNX2+) versus RUNX2 KD (55.5 cells=RUNX2 KD) using an antibody-specific microtiter plate assay. Results are expressed as the change in Absorbance at 450 nm per minute per mg protein (ΔmOD450/min/mg) (*p<0.05). In FIG. 23B PDH activity was determined in MDA-MB-468 (left) and MCF7 (right) BC cell lines with or without compound 1 treatment (50 μM) for the indicated time period.

[4] = system: BC cell lines; assay: Clonogenic survival assay; conditions: 50 μM
Protocol: Cells were plated on 6-well plates (200˜500 cells/well). After compound 1 (50 μM) treatment, cells were incubated for 2-3 weeks without changing media. Colonies were fixed in Methanol-Acetic Acid solution (3:1) and stained with crystal violet (0.5%). After washing, colonies were photographed and counted.

[5] = system: BC cells; assay: Anchorage-independent cell growth assay (soft agar); conditions: 50 μM
Protocol: Cells (10,000) were mixed in 1 ml of 0.3% low-melting agarose over a 0.6% agar bottom layer in normal growth media. The medium (600 μl) with or without compound 1 (50 μM) on soft agar was changed three times a week for 2-3 weeks. Images of MDA-231 and MCF7 were taken using Nikon Eclipse TE-2000S microscope with Zen Pro image software, and of MDA-468 using Olympus CKX41 microscope with Q-Capture Pro 7 image software at indicated magnifications under the same exposure settings for corresponding vehicle and drug treatments.

[6] = system: TAZ; assay: Nuclear TAZ levels by Western blot
Protocol: as §1, with “(Millipore). Membranes were probed with antibodies listed below followed by development with enhanced ECL (Millipore).” for “(Millipore).”
as §2

## O=C(O)C1C2C=CC(C2)C1C(=O)Nc1ccc(Cl)c(Cl)c1 (centres unmarked) [compound 1, 3-(N-(3,4-dichlorophenyl)carbamoyl)-5-norbornene-2-carboxylic acid]
[1]; RUNX2 negative cells (doxycycline+)
  decrease in sE-Cad production: 2 fold
[1]; RUNX2 positive cells, 50 μM, by 72 hr
  decline of sE-Cad levels: ~20 fold
[1]; RUNX2 positive cells, 50 μM, first 24 hr
  increase of sE-Cad production: 3.5 fold
[2]; RUNX2 negative cells
  tumorsphere diameter: 6.37±1.78 mm
[2]; RUNX2 positive cells, 50 μM compound 1
  fold inhibition of tumorsphere diameter relative to vehicle: ~4 fold
[2]; RUNX2 positive cells
  tumorsphere diameter: 4.83±1.87 mm
[3]
  PDH activity: increases PDH activity
[4]; 2˜3 weeks, 11 out of 13 BC cells
  clonogenic survival: less than 50%
[4]; 2˜3 weeks, BT549, HCC70, MDA-468, MCF7, HCC361, BT474
  clonogenic cell survival: less than 10%
[4]; 2˜3 weeks, MDA-231 and Hs578t
  clonogenic survival: > 50%
[4]; 2˜3 weeks, MDA-468 and BT474
  clonogenic survival: did not survive
[4]; T47D-Empty and T47D-RUNX2 cells, 14 days
  clonogenicity: dramatically diminished
[5]; 2-3 weeks
  anchorage-independent cell growth: strongly inhibited
[5]; MDA-231, MCF7, MDA-468
  colony size relative to control: < 1/10
[6]; HCC1428 cells expressing endogenous RUNX2
  reduction in nuclear TAZ levels compared to vehicle: 80%
[6]; RUNX2 negative cells (doxycycline +), over 72 hr
  nuclear TAZ levels: no affect
[6]; RUNX2 positive MCF7 cells (doxycycline -), 50 μM, within 24 hr
  TAZ nuclear levels: lowered
